Test [1] concerns non-resistant L1236 Hodgkin lymphoma cell lines. Put plainly: Viable cell count and IC50, non-resistant lines. Format: cell-based, human. As to conditions: FIG. 6B. The method, then: (b) The bendamustine-resistant Hodgkin lymphoma cell line L1236-R100, non-resistant L1236 Hodgkin lymphoma cell line cultured in DMSO L1236/DMSO and L1236 was cultured in the presence of EDO-S101 dissolved in DMSO at concentrations of 0.78 μM, 1.56 μM, 3.12 μM, 6.25 μM and 12.5 μM. Control cells were cultured in the same final concentration of DMSO. The number of viable cells was assessed at 24, 48 and 72 hours through a Countess™ automated cell counter (Invitrogen), each experiment being repeated three times and the results given being the mean of the three results ±SD.

The test system of test [2] is relapsed-refractory Hodgkin lymphoma. As to conditions: in vivo; cited from earlier work.

As for `Cn1c(CCCC(=O)O)nc2cc(N(CCCl)CCCl)ccc21` [bendamustine], in test [1], the IC50 entry is given as “high IC50 values”. Besides, the “relapsed/refractory Hodgkin lymphoma patients resistant” value in test [2] is recorded as “about 40%”.

(Values after patent US20180098969A1, “HODGKIN LYMPHOMA THERAPY” (Purdue Pharmaceutical Products L.P., priority 2016, published 2018).)
